In US8993254B2, “Methods for evaluating risk of mother's milk or food inducing an onset of atopic dermatitis, and mother's milk or food with reduced risk of inducing an onset of atopic dermatitis” (Saitama Medical University, priority 2009, dated 2015):

Assays:
[1] = test system: Human monocyte-derived dendritic cells (Mo-DCs); assay: Analysis of T cell-differentiation using dendritic cells (mixed lymphocyte reaction, IFNγ and IL-5 ELISA); format: cell-based; details: Mo-DCs pretreated with 1 μg/ml of coenzyme A (FIG. 3B)
Experimental: Human Mo-DCs and CD45RA-positive naive T cells (purity of more than 99%) were prepared according to the previous report (Takagi, R. et al., J Immunol 181: 186-189, 2008).
The immature Mo-DCs were stimulated with 1 to 10% of a liquid fraction of mother's milk or 0 to 10 μg/ml of coenzyme A. Two days after culturing with the liquid fraction or coenzyme A, to induce a mixed lymphocyte reaction (MLR), the cell component was further cultured together with HLA-DR-nonshared allogenic CD4-positive naive T cells in an RPMI1640 medium supplemented with 10% human serum for 6 to 8 days. Then, the T cells were restimulated with an anti-CD3 antibody and an anti-CD28 antibody (BD Pharmingen Inc.). After 48 hours, the culture supernatant was collected to analyze IFNγ and IL-5 by ELISA using IFNγ and IL-5 ELISA kits (R&D systems, Inc.).

SJL/J mice = assay: Mixed lymphocyte reaction using CD3ε-negative cells harvested from mice to which coenzyme A had been orally administered; format: in vivo
Experimental: SJL/J mice (H-2^s) and Nc/Nga mice (non H-2^s) were purchased from Charles River Inc. and Japan SLC, Inc., respectively. 50 μg/ml of coenzyme A was orally administered to the SJL/J mice. Two days later, CD3ε-negative cells were obtained from mesenteric lymph node cells using “[…]” (Miltenyi Biotec Inc.). On the same day, CD62L-positive naive CD4-positive T cells were obtained from the spleens of the Nc/Nga mice using “CD4^+ T cell isolation kit” and “CD62L^+ T cell isolation kit” (Miltenyi Biotec Inc.). Then, 1×10^4 CD3ε-negative cells and 1×10^5 allogenic CD62L-positive naive CD4-positive T cells were co-cultured in a 96-well flat-bottomed culture plate. A mixed lymphocyte reaction (MLR) was induced in an RPMI1640 medium supplemented with 10% FCS for 7 days. Next, the T cells were restimulated with an anti-CD3 antibody and an anti-CD28 antibody (Biolegends, Inc.). The culture supernatant were harvested 16 hours later, and analyzed for IFNγ, IL-4, and
IL-5 using IFNγ, IL-4 and IL-5 ELISA kits (R&D systems, Inc.).
Coenzyme A-containing drinking water (10 to 20 μg/kg/day) was orally administered to mice. […] cells were isolated from the mesenteric lymph node 2 days after the coenzyme A administration, and co-cultured with allogenic CD62L-positive naive CD4-positive T cells.

THP-1 cells = assay: Measurement of intracellular cAMP concentration in PMA-treated THP-1 cells; format: cell-based; details: THP-1 cells treated with PMA, co-incubated with 10 to 30 μg/ml (13 to 39 μM) of coenzyme A
Experimental: In a humid incubator under conditions of 37° C. and 5% CO2, THP-1 cells were cultured in an RPMI1640 medium supplemented with 10% fetal bovine serum, 1% penicillin and streptomycin, and 1% L-glutamine. The THP-1 cells were exposed to 50 ng/ml of PMA (phorbol 12-myristate 13-acetate) for 48 hours, followed by washing. Then, the cells were cultured at 37° C. in the presence of 1 mM 3-isobutyl-1-methyl-xanthine. After 10 minutes, the cells were stimulated with 30% mother's milk (AD: n=55, non-AD: n=55) for 10 minutes, and lysed with cell lysis buffer (Molecular Devices). In some experiments, THP-1 cells treated with 50 ng/ml of PMA for 48 hours were exposed to 10 μM prostaglandin E2 (PGE2). The intracellular cAMP level was measured using CatchPoint™ cyclicAMP fluorescent assay kit (Molecular Devices LLC) in accordance with the maker instruction. In some experiments, delta (Δ)-cAMP was calculated by subtracting the cAMP concentration in THP-1 stimulated with PMA without adjuvant stimulation from the cAMP concentration in THP-1 stimulated with PMA with adjuvant stimulation.

[2] = oral, drinking water 10 to 20 μg/kg/day, mesenteric lymph node cells isolated 2 days after administration (FIG. 4A)
[3] = treated mice, oral 10 to 20 μg/kg/day (FIG. 4B)

How did the “differentiation of allogenic naive CD4-positive T cells into Th2 cells” value [1] turn out when `CC(C)(COP(=O)(O)OP(=O)(O)OC[C@H]1O[C@@H](n2cnc3c(N)ncnc32)[C@H](O)[C@@H]1OP(=O)(O)O)[C@@H](O)C(=O)NCCC(=O)NCCS` [coenzyme A] was run?
Its value is “differentiated into Th2 cells”.

And the “IFNγ production in T cells (MLR)” value (SJL/J mice; [2])?
Its value is “No statistically significant difference”.

What about the “IL-4 production in T cells (MLR)” value (SJL/J mice; [2]) of the same molecule?
The value was “significantly induced”.

What about the “IL-5 production in T cells (MLR)” value (SJL/J mice; [2]) of the same molecule?
The value was “significantly induced”.

What about the IL-4/IFNγ ratio (SJL/J mice; [3]) of the same molecule?
Its IL-4/IFNγ ratio is “significantly high”.

What about the IL-5/IFN ratio (SJL/J mice; [3]) of the same molecule?
The IL-5/IFN ratio was “significantly high”.

What about the “intracellular cAMP” value (THP-1 cells) of the same molecule?
The value was “elevated”.
